Test results: patent US20160272620A1 (priority 2013, published 2016)
Read-outs that look alike come from different tables or passages of the source.

How the values were obtained:
[1] = rat brain microdialysis, HPLC/UV; cited from earlier work
[2] = target: T1, paraoxon-hAChE (Homo sapiens, UniProt P22303); assay type: biochemical
[3] = target: T1, paraoxon-hAChE; conditions: cited from earlier work

T1 sequence (P22303 32-574): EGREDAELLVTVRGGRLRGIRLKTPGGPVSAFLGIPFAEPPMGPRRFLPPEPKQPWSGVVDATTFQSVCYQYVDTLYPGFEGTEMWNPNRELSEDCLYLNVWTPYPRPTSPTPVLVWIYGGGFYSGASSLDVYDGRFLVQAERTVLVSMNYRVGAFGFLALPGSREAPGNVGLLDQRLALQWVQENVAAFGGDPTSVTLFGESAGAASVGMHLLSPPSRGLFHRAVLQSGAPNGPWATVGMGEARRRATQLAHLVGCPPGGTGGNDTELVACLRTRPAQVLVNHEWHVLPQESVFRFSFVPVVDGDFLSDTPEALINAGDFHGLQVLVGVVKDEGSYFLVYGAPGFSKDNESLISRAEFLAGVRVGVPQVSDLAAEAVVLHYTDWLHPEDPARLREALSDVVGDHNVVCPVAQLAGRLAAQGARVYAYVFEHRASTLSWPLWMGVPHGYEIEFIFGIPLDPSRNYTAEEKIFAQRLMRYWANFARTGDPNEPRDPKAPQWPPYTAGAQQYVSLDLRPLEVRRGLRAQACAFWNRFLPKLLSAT

| SMILES | kr [2] [min⁻¹] | kr2 [2] [M⁻¹ s⁻¹] | other results |
| --- | --- | --- | --- |
| C[n+]1ccccc1/C=N/O [Compound 2-PAM] |  |  | BBB penetration [1]: 10% |
| ON=Cc1nccc(CCCCCNc2c3c(nc4ccccc24)CCCC3)c1O [Compound 10, 2-[(hydroxyimino)methyl]-4-{5-[(1,2,3,4-tetrahydroacridin-9-yl)amino]pentyl}pyridin-3-ol] |  |  | reactivation of paraoxon inhibited hAChE [2]: no reactivation |
| O/N=C/c1nc(CCCCCNc2c3c(nc4ccccc24)CCCC3)ccc1O [Compound 11, 2-[(1E)-(hydroxyimino)methyl]-6-{5-[(1,2,3,4-tetrahydroacridin-9-yl)amino]pentyl}pyridin-3-ol] | 0.0228 ± 0.0006 | 348 |  |
| ON=Cc1nc(CCCCNc2c3c(nc4ccccc24)CCCC3)ccc1O [Compound 12, 2-[1-(hydroxyimino)methyl]-6-{4-[(1,2,3,4-tetrahydroacridin-9-yl)amino]butyl}pyridin-3-ol] | 0.111 ± 0.002 | 517 |  |
| ON=Cc1nc(CCCCNc2c3c(nc4ccc(Cl)cc24)CCCC3)ccc1O [Compound 15, 6-(4-((7-Chloro-1,2,3,4-tetrahydroacridin-9-yl)amino)butyl)-3-hydroxy-picolin-aldehyde oxime] | 0.11 ± 0.01 | 317 |  |
| ON=Cc1cc[n+](CCC[n+]2ccc(/C=N/O)cc2)cc1 [Trimedoxime] |  |  | kr [3]: 0.34 ± 0.02 ^a min^−1; kr2 [3]: 17 ^a mM^−1min^−1 |
